We go through six compounds from publication PMC10672221, “The Plant Defensin Ppdef1 Is a Novel Topical Treatment for Onychomycosis” (Journal of Fungi, 2023).

For data set [1], the system named is C. albicans cells. The data set can be described thus: Propidium iodide uptake in response to antifungal treatment (flow cytometry). As to conditions: 30 min; for treated cells no longer viable (PI positive): 50 µg/mL; for treated cells no longer viable (PI positive) / treated cells no longer viable / cells killed (PI positive): 30 °C, 1/2 PDB, flow cytometry; for treated cells no longer viable / cells killed (PI positive): 100 µg/mL. The format is cell-based, Candida albicans. Here is the method: A culture of C. albicans cells (OD600 = 0.3 in ½ PDB) was prepared. Aliquots of the culture (300 µL) were transferred to 1.5 mL tubes and treated with 3.125, 6.25, 12.5, 25, 50, or 100 µg/mL of Ppdef1, efinaconazole, ciclopirox, terbinafine, or tavaborole. Water or dimethyl sulfoxide (DMSO) was added to the untreated control samples. Propidium iodide (2 µL of 1 mg/mL stock) was also added to each sample, and the cells were incubated for 30 min at 30 °C before they were pelleted using centrifugation, resuspended in 300 µL of PBS and transferred to the wells of a 96-well plate. Cells were assessed for fluorescence using the PI channel on a FACS Canto 2 flow cytometer (BD). Cells with fluorescence of more than 185 rfu were considered positive for PI uptake.
A general note: In flow cytometry, cells or beads pass a laser one at a time.

Data set [2] can be described thus: Nail penetration assay (Franz cell nail adaptors). The format is in vitro ADME, human. As to conditions: for maximum level of penetration on any one day: 10 days daily application, efinaconazole 10% as Jublia (maximum on day 8); for applied dose that penetrated the nails on all days, except for terbinafine on Days 7 and 9: efinaconazole 10%; for average penetration per day at Days 7-10: Ppdef1 1% (six replicates), terbinafine 1% in same vehicle (four replicates). How it is done:
Nail penetration assays were conducted essentially as described by Hui et al.. Human fingernail clippings (minimum size: 6.5 mm × 6.5 mm) were hydrated by placing them on folded Kimwipe tissues soaked in 3 mL of phosphate-buffered saline (PBS, pH 7.4) for 3 h at 26 °C. After hydration, nails were placed in plastic Franz cell nail adaptors (Perme Gear, Hellerton, PA, USA) with cotton wool (20 mg ± 2 mg) pre-soaked with 100 µL of phosphate-buffered saline with Tween 0.05% (PBST, pH 7.4) placed underneath the nail. Nails were sealed into the adaptors with silicone and checked for leaks by applying 10 µL of water to the top of the nail for at least 20 min (RT). Ppdef1 drug product (10 µL; 1% Ppdef1 in 50 mM acetate buffer, pH 4.0, 20% isopropanol, 20% propylene glycol), terbinafine (1% in 50 mM acetate buffer, pH 4.0, 20% isopropanol, 20% propylene glycol), or efinaconazole (formulated as Jublia (Valeant)) was applied to the top of the nail, and nails were incubated at 26 °C for 16 h in a Petri dish. A moist Kimwipe was added to the Petri dish to maintain humidity. After 16 h, the cotton wool was removed from the underside of the nail and set aside for analysis. The top of the nail was washed to collect excess test compound that had not penetrated the nail. First, a dry cotton swab was used to collect any excess liquid on the nail. A second swab soaked in 100 µL of water was then wiped over the top of the nail. An additional dry swab was used to collect any remaining liquid. A fresh piece of cotton wool soaked in 100 µL PBST was added to the underside of the nail. The nail was incubated at 26 °C for 1 h to allow for rehydration. Additional test solution (10 µL) was applied, and the process was repeated daily for 10 days. To quantify the amount of test item that had penetrated the nail, cotton wool removed from the underside of the nail was washed twice with 500 mM CaCl2 (200 µL) and then once with 0.1% TFA (200 µL). The cotton wool was incubated with the wash solution for 10 min at 26 °C for each wash. Cotton wool washes were pooled and analysed using RP-HPLC (300SB-C8 analytical column attached to a 1200 series HPLC (Agilent, Santa Clara, CA, USA)). Ethics approval for use of the nail clippings was granted by the La Trobe University Human Ethics Committee for the collection of nail clippings (approval number: HEC18414).

The test system of data set [3] is T. rubrum growing on human nail fragments. As to the kind of experiment: Cell killing of T. rubrum growing on nail fragments (PrestoBlue). The format is cell-based, Trichophyton rubrum. Here is the method: Human nail fragments (~2 mm × 2 mm) were sterilized in water at 99 °C for 4 h. A single nail fragment was placed into each well of a 96-well microtiter plate along with 100 µL of sterile water. T. rubrum conidia (100 µL) were added to obtain a final concentration of 1.5 × 10^5 conidia/mL. Control wells were inoculated with water only. Plates were then incubated for 96 h at 28 °C without shaking to allow T. rubrum to colonise the nail material. After the nail fragments were colonised with T. rubrum, they were treated with Ppdef1 or efinaconazole at a final concentration of 100 or 200 µg/mL. Six replicate wells were used per treatment, and two independent replicates were performed. As efinaconazole was dissolved in ethanol, all wells treated with Ppdef1 were adjusted with ethanol to a final concentration of 1% ethanol. Plates were then incubated for 20 h at 28 °C.
After the 20 h incubation, 20 µL of PrestoBlue® (Thermo Fisher, Scoresby, Victoria, Australia) was added to each well, and the mixture was transferred to a black-wall, clear-bottom microplate. […] The reaction was allowed to proceed for 24 h before fluorescence was measured in an M5e spectrophotometer (Molecular Devices, San Jose, CA, USA) using an excitation wavelength of 560 nm and an emission wavelength of 590 nm as described in the manufacturer’s instructions (Thermo Fisher, Scoresby, Victoria, Australia).

The conditions of data set [4]: systemic (oral), after a 12 week treatment; cited from earlier work. The source says: These infections are hard to treat, can be painful, and have a cosmetic impact on the patient. Current topical treatments for onychomycosis require daily or weekly application for 48 weeks, and even these exhaustive treatment regimens produce low complete cure rates. Until 2014, […]® and its generic equivalents, with the active ingredient ciclopirox, were the only prescription strength topical onychom ... || Several systemic (oral) treatments have been approved for the treatment of onychomycosis. […] The FDA reported in its review of efinaconazole (Center for Drug Evaluation and Research; […] Fungicidal activity in the presence of keratin is hypothesised to correlate with the clinical efficacy for the topical onychomycosis products, ciclopirox and efinaconazole. The complete cu ...

Setting [5] is: terbinafine 1%, four replicates.
Setting [6] is: 10 µL daily, 26 °C, RP-HPLC, average of six replicates.
Where [7] appears, read: 10 µL daily, 26 °C, RP-HPLC, six replicates.

Positions of bridges follow the written chain, without caps; N, C: chain ends. No end group written: not given here.

Turning to `Cc1cc(C2CCCCC2)n(O)c(=O)c1` [ciclopirox], in data set [1], the “treated cells no longer viable (PI positive)” value was ~ 20% and the “treated cells no longer viable / cells killed (PI positive)” value came to 58.7%.
`C=C1CCN([C@H](C)[C@](O)(Cn2cncn2)c2ccc(F)cc2F)CC1` [efinaconazole]: the “maximum level of penetration on any one day” value in data set [2] (setting [5]) is 2.2%. The “average penetration per day on Days 1-7, 9, and 10” value in data set [2] (efinaconazole 10% (Jublia), four replicates) was “approximately 0.5%”. Also, in data set [2] (terbinafine 1%), the “applied dose that penetrated the nails on all days, except for terbinafine on Days 7 and 9” value is recorded as “less than 5%”. Moreover, the “hyphal biomass killed relative to the untreated control” value in data set [3] (200 µg/mL, keratin as sole nutrient source, 1% ethanol, 28 °C, PrestoBlue) is recorded as “little impact”. In data set [3] (either concentration (100 or 200 µg/mL)), the “decrease in viable fungi” value is recorded as “did not cause a significant decrease”. For the same compound, the “treated cells no longer viable (PI positive)” value in data set [1] was “no significant cell death”. The “cell death (PI uptake)” value in data set [1] (any of the tested concentrations (3.125-100 µg/mL)) is recorded as “did not induce a significant cell death”.
In the case of `CCC(C)n1ncn(-c2ccc(N3CCN(c4ccc(OCC5COC(Cn6cncn6)(c6ccc(Cl)cc6Cl)O5)cc4)CC3)cc2)c1=O` (stereo not shown) [itraconazole], the cure rate in data set [4] is on record as 14%.
Turning to `OB1OCc2cc(F)ccc21` [tavaborole], in data set [1], the “treated cells no longer viable (PI positive)” value is “no significant cell death” and the “treated cells no longer viable / cells killed (PI positive)” value was “less than 25%”.
As for `CN(C/C=C/C#CC(C)(C)C)Cc1cccc2ccccc12` [terbinafine], in data set [2] (10 µL daily, 26 °C, RP-HPLC), the “average penetration per day at Days 7-10” value turned out to be 3.8%. Further, the “maximum level of penetration on any one day” value in data set [2] (setting [5]) was determined as 7.0%. Also, in data set [2] (terbinafine 1%), the “applied dose that penetrated the nails on Days 7 and 9” value is given as “less than 10%”; the “applied dose that penetrated the nails on all days, except for terbinafine on Days 7 and 9” value is “less than 5%”. In addition, the “penetration observed on most days” value in data set [2] (terbinafine 1%, daily for 10 days, four replicates) is “approximately 3.0%”. In data set [4], the cure rate is 38%. Further, in data set [1], the “treated cells no longer viable (PI positive)” value was “no significant cell death” and the “treated cells no longer viable / cells killed (PI positive)” value is reported as “less than 25%”.
For the compound “AKVCTKPSKFFKGLCGTDGACTTACRKEGLHSGYCQLKGFLNSVCVCRKHC (disulfide 4-51, 15-35, 21-45, 25-47) [Ppdef1]”, the “applied dose that penetrated the nail, first day” value in data set [2] (10 µL applied daily, 26 °C, 16 h, cotton wool under nail, RP-HPLC, 1% Ppdef1 in 50 mM acetate pH 4.0, 20% isopropanol, 20% propylene glycol, average of six replicates) is 13.3%. Moreover, in data set [2] (setting [6]), the “applied dose that penetrated the nail, Day 2” value came out at 3.2% and the “applied dose that penetrated the nail, Day 3” value was 2.0%. Also, in data set [2] (setting [7]), the “average penetration per day over Days 4, 5, and 6” value worked out at 13.1%; the “penetration by Day 7” value is listed as “approximately 26%”. For the same compound, the “average penetration per day at Days 7-10” value in data set [2] (10 µL daily, 26 °C, RP-HPLC) came to 26.1%. Also, the “applied dose that penetrated the nail on Days 7-10” value in data set [2] (Ppdef1 1%) is recorded as “Greater than 20%”. For the same compound, in data set [2] (daily application of 10 µL of a 1% solution for 10 days), the “amount passed through the nail” value is reported as “more than 150 µg”.
